These results are taken from PubChem BioAssay (NCI).

Test systems include K-562 leukemia; PC-3 prostate; RPMI-8226 leukemia; UACC-257 melanoma; OVCAR-3 ovarian; HOP-62 NSCLC; RXF 393 renal; SN12C renal; ACHN renal; UO-31 renal.
Assay in all cases: NCI tumour cell line growth inhibition, 48 h

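Where inhibition never reached the appropriate level, the endpoint shown equals the highest concentration tested. Otherwise, values were interpolated linearly from a five-concentration, 48-hour dose response in 96-well plates. The concentration for 50% growth inhibition is given as GI50. TGI is the concentration that stops growth completely.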 Some results are limits rather than exact numbers.

As to `NCCNc1nc2ccc(F)cc2c2c(=O)c3cc(F)ccc3sc12`, the GI50 with K-562 leukemia was 2.14 µM; with PC-3 prostate it was 1.48 µM; in the experiment with RPMI-8226 leukemia, 2.18 µM; in the experiment on UACC-257 melanoma, 2.69 µM; in the experiment on OVCAR-3 ovarian, 1.63 µM; in the experiment on HOP-62 NSCLC, 1.39 µM. The GI50 in the experiment with RXF 393 renal was 2.33 µM; in the experiment on SN12C renal it was 1.68 µM; in the experiment with ACHN renal, 1.5 µM; with UO-31 renal it was 1.34 µM. The TGI in the experiment on K-562 leukemia worked out at 5.41 µM; in the experiment with PC-3 prostate, 2.85 µM; with RPMI-8226 leukemia it was 5.11 µM; with UACC-257 melanoma, 7.8 µM; in the experiment with OVCAR-3 ovarian it was 3.15 µM; with HOP-62 NSCLC, 2.87 µM. The TGI in the experiment on RXF 393 renal was 7.32 µM; in the experiment on SN12C renal, 3.29 µM; in the experiment on ACHN renal it was 2.83 µM; with UO-31 renal, 11.3 µM.
For `NC1=CC(=O)C(=O)c2ccccc21`, the GI50 with K-562 leukemia is 20.6 µM; in the experiment on PC-3 prostate, 17.9 µM; in the experiment on RPMI-8226 leukemia, 11.2 µM; in the experiment on UACC-257 melanoma, 5.63 µM; in the experiment on OVCAR-3 ovarian, 12.4 µM; in the experiment with HOP-62 NSCLC, 18 µM. Moreover, the GI50 was 24.3 µM in the experiment on RXF 393 renal, 2.77 µM with SN12C renal, 16.2 µM in the experiment with ACHN renal and 11.5 µM with UO-31 renal. In addition, the TGI is above 100 µM in the experiment with K-562 leukemia; 70.5 µM in the experiment on PC-3 prostate; 53.2 µM in the experiment on RPMI-8226 leukemia; 18.2 µM with UACC-257 melanoma; 29.9 µM with OVCAR-3 ovarian; 40.7 µM with HOP-62 NSCLC. Moreover, the TGI was 71.5 µM with RXF 393 renal, 17.4 µM in the experiment on SN12C renal, 50.1 µM in the experiment on ACHN renal and 35.6 µM in the experiment with UO-31 renal.
For `Cn1c(=S)c2[nH]c(SCc3cccnc3)nc2n(C)c1=O`, the TGI in the experiment with K-562 leukemia, in the experiment on PC-3 prostate, in the experiment with RPMI-8226 leukemia, in the experiment on UACC-257 melanoma, in the experiment on OVCAR-3 ovarian and in the experiment with HOP-62 NSCLC was above 100 µM each time. Further, the TGI in the experiment with RXF 393 renal, in the experiment with SN12C renal, in the experiment with ACHN renal and with UO-31 renal was above 100 µM each time.
As to `CCC1C[N+]2=C(c3cc(OC)c(OC)cc3CC2)c2c1cc1n2CCc2cc(OC)c(OC)cc2-1` (configuration not stated), the GI50 is 1.95 µM with K-562 leukemia; 2.5 µM in the experiment with PC-3 prostate; 0.576 µM in the experiment on RPMI-8226 leukemia; 1 µM in the experiment on OVCAR-3 ovarian; 3.51 µM with HOP-62 NSCLC; 3.46 µM in the experiment with RXF 393 renal. The GI50 with SN12C renal is 1.93 µM; in the experiment on ACHN renal, 14.7 µM; with UO-31 renal it was 18.4 µM. The TGI in the experiment with K-562 leukemia came to 20.8 µM; in the experiment on PC-3 prostate, 33.1 µM; in the experiment on RPMI-8226 leukemia it was 15 µM; with OVCAR-3 ovarian, 10.8 µM; in the experiment on HOP-62 NSCLC it was 26.5 µM; in the experiment with RXF 393 renal, 15.5 µM. Further, the TGI is 11.8 µM with SN12C renal, 30.1 µM in the experiment with ACHN renal and 46.8 µM in the experiment on UO-31 renal.
As for `COc1ccc(/C=N/C2=NNC(C)(c3ccccc3O)N2C(Cc2c[nH]c3ccccc23)C(=O)O)cc1` (configuration not stated), the GI50 in the experiment with K-562 leukemia is 2.38 µM; with PC-3 prostate, 2.68 µM; with RPMI-8226 leukemia, 2.14 µM; in the experiment with UACC-257 melanoma it was 3.53 µM; in the experiment on OVCAR-3 ovarian it was 3.05 µM; in the experiment on HOP-62 NSCLC, 2.58 µM. Also, the GI50 is 1.27 µM in the experiment on RXF 393 renal, 3.11 µM in the experiment on SN12C renal, 3.02 µM in the experiment on ACHN renal and 1.62 µM in the experiment on UO-31 renal. Also, the TGI in the experiment with K-562 leukemia is 11.6 µM; with PC-3 prostate, 11.6 µM; with RPMI-8226 leukemia, 7.65 µM; in the experiment with UACC-257 melanoma, 10.8 µM; in the experiment on OVCAR-3 ovarian it was 11.7 µM; in the experiment with HOP-62 NSCLC it was 11.9 µM. For the same compound, the TGI in the experiment with RXF 393 renal worked out at 6.26 µM; in the experiment with SN12C renal, 11.3 µM; with ACHN renal it was 14.7 µM; in the experiment with UO-31 renal it was 11.2 µM.
With `Nc1n[nH]c2cc(F)c([C@@H]3Nc4c(F)cc5[nH]ncc5c4[C@H]4C5CCC(C5)[C@@H]34)cc12` (some centres not stated), the GI50 with K-562 leukemia is 0.11 µM; with PC-3 prostate, 0.149 µM; with RPMI-8226 leukemia it was 0.145 µM; with UACC-257 melanoma it was 5.16 µM; in the experiment with OVCAR-3 ovarian, 0.105 µM; with HOP-62 NSCLC, 0.195 µM. Besides, the GI50 with SN12C renal is 0.187 µM; with ACHN renal, 0.188 µM; with UO-31 renal it was 0.209 µM. The TGI in the experiment on K-562 leukemia was determined as 12.7 µM; in the experiment on PC-3 prostate, 8.04 µM; with RPMI-8226 leukemia, 5.22 µM; with UACC-257 melanoma, 23.3 µM; with OVCAR-3 ovarian it was 3.73 µM; with HOP-62 NSCLC, 6.46 µM. The TGI in the experiment on SN12C renal came to 9.46 µM; with ACHN renal it was 11.1 µM; with UO-31 renal, 10.8 µM.
As to `COc1ccc(OC)c(-c2nc3sc(C)cn3c2/C=C2\C(=O)N(C)c3ccccc32)c1`, the GI50 in the experiment with K-562 leukemia is 5.98 µM; in the experiment with PC-3 prostate, 20.9 µM; with RPMI-8226 leukemia, 13.1 µM; in the experiment with UACC-257 melanoma, 29.5 µM; in the experiment on OVCAR-3 ovarian, 23.6 µM; in the experiment on HOP-62 NSCLC it was 22.5 µM. Also, the GI50 with SN12C renal was 20.6 µM; with ACHN renal, 28.7 µM; with UO-31 renal, 21.1 µM. Moreover, the TGI was 71.1 µM with K-562 leukemia; above 100 µM in the experiment with PC-3 prostate; 40.2 µM in the experiment on RPMI-8226 leukemia; 82.6 µM in the experiment on UACC-257 melanoma; 62.3 µM in the experiment with OVCAR-3 ovarian; 61.4 µM with HOP-62 NSCLC. The results for the TGI with SN12C renal, in the experiment on ACHN renal and with UO-31 renal were 50.7 µM, above 100 µM and 59.7 µM, respectively.
On to `COc1ccc(C#CC2=C(Br)C(=O)OC2)cc1`, for which the GI50 is 4.77 µM in the experiment on K-562 leukemia; 11.6 µM in the experiment with PC-3 prostate; 2.14 µM in the experiment on RPMI-8226 leukemia; 11.9 µM with UACC-257 melanoma; 1.61 µM with OVCAR-3 ovarian; 7.06 µM with RXF 393 renal. For the same compound, the GI50 with SN12C renal is 8.83 µM; in the experiment on ACHN renal it was 3.56 µM; in the experiment on UO-31 renal, 16.9 µM. The TGI in the experiment on K-562 leukemia is above 50 µM; in the experiment on PC-3 prostate it was 29.8 µM; in the experiment with RPMI-8226 leukemia, above 50 µM; in the experiment with UACC-257 melanoma, 26.4 µM; with OVCAR-3 ovarian, 7 µM; in the experiment with RXF 393 renal, 17.4 µM. Further, the TGI was 16.9 µM in the experiment on SN12C renal, 13.2 µM in the experiment with ACHN renal and above 50 µM with UO-31 renal.
